# Values of other authors, collected in patent publication US6921530B1, “Low dose IL-2 for potentiation of immunity” (Cornell Research Foundation, Inc., priority 1999, dated 2005).
# Several values for one entry are separate records, joined by “and”; a condition that tells them apart may be missing. Equal values may be shown once.
# Tested on: HCV
# Conditions: cited from earlier work
substance,measurement,setting,value
Interferon-α [IFN-α],"sustained response, % of patients","3×10^6 units s.c. three times a week over one year, monotherapy",35% and 28-43%
same,initial delay before decline of plasma HCV viral load,daily IFN therapy,9 h
